Laboratory results from US9803187B2 (priority 2014, dated 2017).
Like-named read-outs stand apart in the source and are kept apart here.

Key:
SbnE [1] = target: T1, SbnE (Staphylococcus aureus, UniProt Q2G1M9); experiment: biochemical
AsbA [2] = target: T2, AsbA (Bacillus anthracis, UniProt A0A0F7RJ52); experiment: biochemical
AsbB = AsbB (Bacillus anthracis, UniProt Q81RQ8); experiment: biochemical; format: biochemical
SbnE [3] = target: T1, SbnE; experiment: biochemical; format: biochemical, S. aureus; settings: for Ki: inhibition constant (Ki) SbnE
AsbA [4] = target: T2, AsbA; experiment: biochemical; format: biochemical, B. anthracis; settings: for Ki: inhibition constant (Ki) AsbA
S. aureus (Newman) = experiment: microbe, parasite or virus in culture; format: cell-based; settings: for IC50: Staphylococcus aureus, NEWMAN, 8 h
MRSA (USA 300) = experiment: microbe, parasite or virus in culture; format: cell-based, methicillin-resistant Staphylococcus aureus; settings: Staphylococcus aureus
[5] = tested on: B. anthracis (Sterne 34F2); experiment: microbe, parasite or virus in culture; format: cell-based; settings: for IC50: Bacillus anthracis
S. typhimurium = experiment: microbe, parasite or virus in culture; format: cell-based; settings: Salmonella enterica
E. coli (MC 1061) = experiment: microbe, parasite or virus in culture; format: cell-based; settings: Escherichia coli
S. flexneri (BS103) = experiment: microbe, parasite or virus in culture; format: cell-based; settings: Shigella flexneri

AsbB, sequence (Q81RQ8 whole entry, looked up): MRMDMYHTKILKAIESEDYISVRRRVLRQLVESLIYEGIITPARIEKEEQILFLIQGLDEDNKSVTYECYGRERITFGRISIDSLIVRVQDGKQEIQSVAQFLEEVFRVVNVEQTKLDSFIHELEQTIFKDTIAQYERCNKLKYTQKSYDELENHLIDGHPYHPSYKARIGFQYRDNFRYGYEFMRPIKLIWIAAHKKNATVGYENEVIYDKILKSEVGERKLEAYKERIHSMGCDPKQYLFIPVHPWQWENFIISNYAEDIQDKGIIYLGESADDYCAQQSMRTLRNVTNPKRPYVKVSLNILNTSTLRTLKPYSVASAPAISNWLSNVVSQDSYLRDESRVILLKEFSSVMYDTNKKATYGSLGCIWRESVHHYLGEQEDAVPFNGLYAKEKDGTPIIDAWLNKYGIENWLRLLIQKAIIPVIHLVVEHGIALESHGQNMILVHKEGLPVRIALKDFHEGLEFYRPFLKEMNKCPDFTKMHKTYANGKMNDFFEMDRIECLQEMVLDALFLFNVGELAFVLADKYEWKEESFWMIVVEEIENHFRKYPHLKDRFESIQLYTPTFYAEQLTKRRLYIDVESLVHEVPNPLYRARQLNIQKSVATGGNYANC
T1 sequence (Q2G1M9 whole entry): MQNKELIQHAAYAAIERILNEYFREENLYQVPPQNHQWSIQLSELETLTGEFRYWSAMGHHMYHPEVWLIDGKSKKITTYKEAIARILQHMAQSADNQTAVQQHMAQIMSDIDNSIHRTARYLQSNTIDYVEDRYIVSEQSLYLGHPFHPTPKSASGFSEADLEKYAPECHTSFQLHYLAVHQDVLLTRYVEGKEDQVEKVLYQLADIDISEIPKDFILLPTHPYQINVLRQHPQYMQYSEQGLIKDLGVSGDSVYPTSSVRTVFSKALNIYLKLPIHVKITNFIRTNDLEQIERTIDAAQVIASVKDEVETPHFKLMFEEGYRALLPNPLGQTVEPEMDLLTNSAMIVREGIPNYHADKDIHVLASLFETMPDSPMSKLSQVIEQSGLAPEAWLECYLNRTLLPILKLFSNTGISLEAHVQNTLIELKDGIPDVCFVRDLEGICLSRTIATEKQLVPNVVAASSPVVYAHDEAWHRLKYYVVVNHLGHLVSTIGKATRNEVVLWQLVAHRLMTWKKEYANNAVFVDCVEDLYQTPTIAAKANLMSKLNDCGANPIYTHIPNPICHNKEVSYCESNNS
T2 sequence (A0A0F7RJ52 whole entry, looked up): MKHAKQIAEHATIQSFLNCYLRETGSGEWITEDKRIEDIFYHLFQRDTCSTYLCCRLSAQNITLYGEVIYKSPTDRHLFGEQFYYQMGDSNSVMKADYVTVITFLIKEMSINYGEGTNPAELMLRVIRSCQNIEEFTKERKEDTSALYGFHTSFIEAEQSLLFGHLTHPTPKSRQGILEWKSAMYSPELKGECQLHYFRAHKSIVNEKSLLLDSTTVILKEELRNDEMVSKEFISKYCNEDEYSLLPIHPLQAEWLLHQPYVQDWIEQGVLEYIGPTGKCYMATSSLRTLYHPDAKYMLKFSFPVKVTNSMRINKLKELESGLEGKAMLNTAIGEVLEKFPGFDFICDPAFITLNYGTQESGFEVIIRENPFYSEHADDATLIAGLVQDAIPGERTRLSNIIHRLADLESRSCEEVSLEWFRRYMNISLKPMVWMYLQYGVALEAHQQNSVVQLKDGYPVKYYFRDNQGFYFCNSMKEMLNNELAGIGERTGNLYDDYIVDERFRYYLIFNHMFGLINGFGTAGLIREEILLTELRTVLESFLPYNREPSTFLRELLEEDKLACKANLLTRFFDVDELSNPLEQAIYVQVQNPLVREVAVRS

CCC(=O)[C@@H](C)C[C@@H](C)C[C@@H](C)CC[C@H](O)C[C@H](O)[C@H](CC(C)C)[C@H](O)c1cc(O)cc(O)c1 [BmcA, Baulamycin A]
IC50 (SbnE [1]): 4.8 µM
IC50 (AsbA [2]): 180 µM
IC50 (AsbB): > 1000 µM
inhibition against AsbB (in words) (AsbB): negligible
mechanism of inhibition of SbnE (SbnE [3]): reversible, competitive
Ki (SbnE [3]; ATP): 680 µM
Ki (SbnE [3]; citric acid): 50 µM
Ki (SbnE [3]; polyamine substrate): 210 µM
mechanism of inhibition of AsbA (AsbA [4]): reversible, competitive
Ki (AsbA [4]; ATP): 230 µM
Ki (AsbA [4]; citric acid): 110 µM
Ki (AsbA [4]; polyamine substrate): 170 µM
IC50 (S. aureus (Newman); read-out: IDM IC50): 69 µM
IC50 (S. aureus (Newman); read-out: IRM IC50): 86 µM
IC50 (MRSA (USA 300); read-out: IDM IC50): 130 µM
IC50 (MRSA (USA 300); read-out: IRM IC50): 130 µM
IC50 ([5]; read-out: IDM IC50): 110 µM
IC50 ([5]; read-out: IRM IC50): 120 µM
IC50 (S. typhimurium; read-out: IC50, iron-depleted conditions): > 1000 µM
IC50 (S. typhimurium; read-out: IC50, iron-rich conditions): > 1000 µM
IC50 (S. typhimurium; read-out: IDM IC50): > 1000 µM
IC50 (S. typhimurium; read-out: IRM IC50): > 1000 µM
IC50 (E. coli (MC 1061); read-out: IDM IC50): 4.2 µM
IC50 (E. coli (MC 1061); read-out: IRM IC50): 150 µM
IC50 (S. flexneri (BS103); read-out: IDM IC50): 20 µM
IC50 (S. flexneri (BS103); read-out: IRM IC50): 46 µM

CC(=O)[C@@H](C)C[C@@H](C)C[C@@H](C)CC[C@H](O)C[C@H](O)[C@H](CC(C)C)[C@H](O)c1cc(O)cc(O)c1 [BmcB, Baulamycin B]
IC50 (SbnE [1]): 19 µM
IC50 (AsbA [2]): 200 µM
IC50 (AsbB): > 1000 µM
inhibition against AsbB (in words) (AsbB): negligible
potency against S. aureus (Newman) compared with BmcA (in words) (S. aureus (Newman)): significantly less potent
potency against B. anthracis (Sterne 34F2) compared with BmcA (in words) [5]: significantly less potent
